Experimental data taken from patent US8114583B2, “Switch-region: target and method for inhibition of bacterial RNA polymerase” (priority 2005, dated 2012).

Tests used:
[1] = tested on: Escherichia coli with substitutions in RNAP β′ subunit (rpoC) or β subunit (rpoB); test: MIC ratio (MIC mutant/MIC wild-type) of resistant rpoC/rpoB mutants; format: cell-based
Source text: To identify determinants for function of Myx, Applicant has performed random mutagenesis of genes encoding Escherichia coli RNAP β′ subunit (rpoC) and β subunit (rpoB), and has isolated and sequenced five independent Myx-resistant mutants (methods as described in Mukhopadhyay, et al. (2004) Mol. Cell. 14, 739-751).
To further define determinants for function of Myx, Applicant has performed saturation mutagenesis of genes encoding Escherichia coli RNAP β′ subunit (rpoC) and β subunit (rpoB), and has isolated and sequenced more than 100 independent Myx-resistant mutants (methods as described in Mukhopadhyay, et al. (2004) Mol. Cell. 14, 739-751; Tuske, et al. […] Cell 122, 541-552). Saturation mutagenesis was performed using a set of “doped” oligodeoxyribonucleotide primers targeting all codons for residues located within 30 Å of β′ residue 345 and β residues 1275 and 1292 in the three-dimensional structure of bacterial RNAP (primer sequences in Table 2). […]

[2] = tested on: Escherichia coli DH21tolC; test: bacteriocidal activity; format: cell-based; details: unpublished data
Escherichia coli RNAP = Escherichia coli RNAP (Escherichia coli, UniProt P0A8T7+P0A8V2); format: biochemical
Source text: (A) DNA construct SEQ ID NO:133. (B) Data.
(A) DNA construct SEQ ID NO:134. (B) Data.
Applicant has performed transcription and DNA-binding experiments in order to define the basic mechanism of transcription inhibition by Myx (methods as in Mukhopadhyay, et al. (2004) Mol. Cell. 14, 739-751).
Applicant has performed DNA binding experiments with a series of subfragments of promoter DNA in order to map the interaction of RNAP with promoter DNA inhibited by Myx (methods as in Mukhopadhyay, et al. (2004) Mol. Cell. 14, 739-751). […] This DNA segment corresponds, precisely, to the DNA segment proposed to bind within the RNAP active-center cleft, and to be affected by clamp opening and closing, in structural models of transcription initiation complexes (see Ebright (2000) J. Mol. Biol. 304, 687-698; Murakami, et al. (2003) Curr. Opin. Stuct. Biol. 12, 89-97; Borukhov & Nudler (2003) Curr. Opin. Microbiol. 6, 93-100; Murakami, et al. (2002) Science 296, 1285-1290; Naryshkin, et al. (2000) Cell 101, 601-611; Mekler, et al. (2002) Cell 108, 599-614).

Bacillus subtilis = details: cited from earlier work
B. megaterium = details: cited from earlier work
Micrococcus luteus = details: cited from earlier work
[3] = tested on: Corynebacterium mediolanum; details: cited from earlier work
[4] = tested on: Escherichia coli DH21tolC; details: cited from earlier work
bacterial RNAP = bacterial RNAP (Escherichia coli, UniProt P0A8T7+P0A8V2); details: read-out: Ki, inhibition of bacterial RNAP; cited from earlier work
eukaryotic RNAP II = details: cited from earlier work

bacterial RNAP, sequence (P0A800 whole entry): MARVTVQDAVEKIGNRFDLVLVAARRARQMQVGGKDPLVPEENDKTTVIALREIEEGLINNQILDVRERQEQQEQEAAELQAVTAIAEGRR
bacterial RNAP, sequence (P0A8T7 whole entry): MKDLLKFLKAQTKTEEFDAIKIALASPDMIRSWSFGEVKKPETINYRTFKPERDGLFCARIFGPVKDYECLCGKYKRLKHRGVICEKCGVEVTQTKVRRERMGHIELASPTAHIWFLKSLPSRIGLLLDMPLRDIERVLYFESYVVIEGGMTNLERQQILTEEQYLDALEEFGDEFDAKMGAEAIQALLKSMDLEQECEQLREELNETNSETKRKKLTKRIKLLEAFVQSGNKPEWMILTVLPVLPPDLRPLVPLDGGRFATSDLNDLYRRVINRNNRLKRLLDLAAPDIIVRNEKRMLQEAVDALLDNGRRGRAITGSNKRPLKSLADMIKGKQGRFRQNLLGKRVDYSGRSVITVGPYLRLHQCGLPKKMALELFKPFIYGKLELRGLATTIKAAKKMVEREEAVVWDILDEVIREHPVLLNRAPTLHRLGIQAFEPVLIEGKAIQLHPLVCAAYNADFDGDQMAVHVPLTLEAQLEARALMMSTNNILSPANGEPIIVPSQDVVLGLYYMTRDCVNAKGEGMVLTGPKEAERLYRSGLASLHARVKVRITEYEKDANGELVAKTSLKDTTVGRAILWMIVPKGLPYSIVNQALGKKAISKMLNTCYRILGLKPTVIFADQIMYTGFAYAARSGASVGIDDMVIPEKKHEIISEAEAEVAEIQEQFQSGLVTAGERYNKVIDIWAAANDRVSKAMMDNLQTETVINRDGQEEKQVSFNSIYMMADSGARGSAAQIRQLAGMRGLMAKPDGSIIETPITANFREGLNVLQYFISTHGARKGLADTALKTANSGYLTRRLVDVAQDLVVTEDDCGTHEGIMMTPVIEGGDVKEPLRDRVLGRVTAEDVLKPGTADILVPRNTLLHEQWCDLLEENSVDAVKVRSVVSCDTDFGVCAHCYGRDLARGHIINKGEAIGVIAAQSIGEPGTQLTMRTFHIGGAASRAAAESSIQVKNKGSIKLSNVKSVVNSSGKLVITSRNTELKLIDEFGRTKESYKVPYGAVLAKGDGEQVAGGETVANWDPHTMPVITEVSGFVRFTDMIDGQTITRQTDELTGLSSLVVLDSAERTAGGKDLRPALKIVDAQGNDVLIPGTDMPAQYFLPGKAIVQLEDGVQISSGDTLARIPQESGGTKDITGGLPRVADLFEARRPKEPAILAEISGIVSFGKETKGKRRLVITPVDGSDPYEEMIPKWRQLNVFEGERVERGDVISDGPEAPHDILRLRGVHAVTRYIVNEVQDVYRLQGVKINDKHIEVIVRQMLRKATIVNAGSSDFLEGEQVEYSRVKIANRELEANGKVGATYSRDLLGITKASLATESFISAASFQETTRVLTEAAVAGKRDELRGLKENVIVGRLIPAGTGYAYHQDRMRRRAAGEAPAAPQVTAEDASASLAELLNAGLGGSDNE
bacterial RNAP, sequence (P0A8V2 whole entry): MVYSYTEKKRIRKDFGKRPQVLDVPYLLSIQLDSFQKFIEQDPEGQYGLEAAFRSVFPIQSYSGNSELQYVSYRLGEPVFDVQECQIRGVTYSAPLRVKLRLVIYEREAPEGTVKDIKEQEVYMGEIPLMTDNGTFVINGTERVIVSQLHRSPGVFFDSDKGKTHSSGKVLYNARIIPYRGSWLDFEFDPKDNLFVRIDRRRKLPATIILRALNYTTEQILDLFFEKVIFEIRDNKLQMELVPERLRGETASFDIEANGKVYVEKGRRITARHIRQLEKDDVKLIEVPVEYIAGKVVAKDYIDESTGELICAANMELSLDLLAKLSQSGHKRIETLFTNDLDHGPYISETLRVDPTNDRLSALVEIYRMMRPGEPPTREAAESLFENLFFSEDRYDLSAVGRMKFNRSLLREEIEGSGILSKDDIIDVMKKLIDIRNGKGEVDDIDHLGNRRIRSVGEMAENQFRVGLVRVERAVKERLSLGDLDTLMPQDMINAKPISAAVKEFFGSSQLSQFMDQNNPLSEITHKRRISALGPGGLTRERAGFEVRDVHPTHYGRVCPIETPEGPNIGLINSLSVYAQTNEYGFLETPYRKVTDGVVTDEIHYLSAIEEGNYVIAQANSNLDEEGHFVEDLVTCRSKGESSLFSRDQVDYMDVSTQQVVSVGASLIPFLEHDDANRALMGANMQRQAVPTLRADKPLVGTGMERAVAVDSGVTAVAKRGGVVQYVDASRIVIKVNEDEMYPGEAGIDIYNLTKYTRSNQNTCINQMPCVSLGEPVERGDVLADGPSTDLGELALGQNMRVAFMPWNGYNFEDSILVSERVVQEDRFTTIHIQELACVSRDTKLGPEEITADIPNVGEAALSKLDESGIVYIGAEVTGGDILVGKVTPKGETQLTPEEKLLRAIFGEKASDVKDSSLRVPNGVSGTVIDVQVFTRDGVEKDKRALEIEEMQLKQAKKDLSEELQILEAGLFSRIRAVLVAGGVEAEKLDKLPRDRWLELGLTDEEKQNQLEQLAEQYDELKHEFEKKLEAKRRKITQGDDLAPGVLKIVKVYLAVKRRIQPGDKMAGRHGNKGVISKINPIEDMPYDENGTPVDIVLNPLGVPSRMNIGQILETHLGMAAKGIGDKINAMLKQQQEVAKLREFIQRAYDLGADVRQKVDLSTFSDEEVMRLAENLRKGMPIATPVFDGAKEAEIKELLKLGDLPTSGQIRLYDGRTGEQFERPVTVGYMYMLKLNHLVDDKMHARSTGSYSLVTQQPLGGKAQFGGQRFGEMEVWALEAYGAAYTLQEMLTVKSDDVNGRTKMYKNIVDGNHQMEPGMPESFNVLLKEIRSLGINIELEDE
bacterial RNAP, sequence (P0A7Z4 whole entry, further chain): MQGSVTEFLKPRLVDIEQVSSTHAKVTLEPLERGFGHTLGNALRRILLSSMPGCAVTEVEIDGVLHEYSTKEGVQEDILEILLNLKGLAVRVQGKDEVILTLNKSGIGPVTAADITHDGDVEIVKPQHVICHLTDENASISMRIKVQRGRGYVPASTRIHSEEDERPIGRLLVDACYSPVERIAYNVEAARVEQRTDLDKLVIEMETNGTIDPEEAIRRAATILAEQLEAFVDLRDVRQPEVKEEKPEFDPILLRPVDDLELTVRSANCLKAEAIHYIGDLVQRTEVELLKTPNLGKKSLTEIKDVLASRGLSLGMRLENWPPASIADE

SMILES: C/C=C/C/C=C(\C)C(O)CC/C(C)=C/C=C(\C)C(=O)c1c(O)cc([C@H](C)CC/C=C/NC(=O)OC)oc1=O (stereo partly drawn) [Cor, corallopyronin]
- MIC ratio (MIC, mutant/MIC, wild-type) ([1]; rpoB 1255 Thr→Ile): 4
- MIC ratio (MIC, mutant/MIC, wild-type) ([1]; rpoB 1275 Val→Met): >8
- MIC ratio (MIC, mutant/MIC, wild-type) ([1]; rpoB 1275 Val→Phe): >8
- MIC ratio (MIC, mutant/MIC, wild-type) ([1]; rpoB 1278 Leu→Val): 4
- MIC ratio (MIC, mutant/MIC, wild-type) ([1]; rpoB 1279 Glu→Gly): 4
- MIC ratio (MIC, mutant/MIC, wild-type) ([1]; rpoB 1279 Glu→Lys): 8
- MIC ratio (MIC, mutant/MIC, wild-type) ([1]; rpoB 1283 Ala→Val): 4
- MIC ratio (MIC, mutant/MIC, wild-type) ([1]; rpoB 1285 Tyr→Asp): 1
- MIC ratio (MIC, mutant/MIC, wild-type) ([1]; rpoB 1291 Leu→Phe): 1
- MIC ratio (MIC, mutant/MIC, wild-type) ([1]; rpoB 1298 Val→Leu): 2
- MIC ratio (MIC, mutant/MIC, wild-type) ([1]; rpoB 1315 Met→Leu): 2
- MIC ratio (MIC, mutant/MIC, wild-type) ([1]; rpoB 1317 Pro→Leu): 2
- MIC ratio (MIC, mutant/MIC, wild-type) ([1]; rpoB 1320 Pro→Ala): 4
- MIC ratio (MIC, mutant/MIC, wild-type) ([1]; rpoB 1322 Ser→Pro): 4
- MIC ratio (MIC, mutant/MIC, wild-type) ([1]; rpoB 1322 Ser→Thr): 4
- MIC ratio (MIC, mutant/MIC, wild-type) ([1]; rpoB 1322 Ser→Tyr): 4
- MIC ratio (MIC, mutant/MIC, wild-type) ([1]; rpoB 1322 Ser→Val): 8
- MIC ratio (MIC, mutant/MIC, wild-type) ([1]; rpoB 1325 Val→Leu): 4
- MIC ratio (MIC, mutant/MIC, wild-type) ([1]; rpoB 1326 Leu→Trp): >8
- MIC ratio (MIC, mutant/MIC, wild-type) ([1]; rpoC 345 Lys→Arg): >8
- MIC ratio (MIC, mutant/MIC, wild-type) ([1]; rpoC 345 Lys→Asn): 8
- MIC ratio (MIC, mutant/MIC, wild-type) ([1]; rpoC 345 Lys→Thr): 8
- MIC ratio (MIC, mutant/MIC, wild-type) ([1]; rpoC 1346 Gly→Asp): 4
- MIC ratio (MIC, mutant/MIC, wild-type) ([1]; rpoC 1351 Val→Phe): >8
- MIC ratio (MIC, mutant/MIC, wild-type) ([1]; rpoC 1352 Ile→Asn): 4
- MIC ratio (MIC, mutant/MIC, wild-type) ([1]; rpoC 1352 Ile→Ser): 4
- MIC ratio (MIC, mutant/MIC, wild-type) ([1]; rpoC 1354 Gly→Cys): 2
- bacteriocidal or not [2]: bacteriocidal
- effects on transcription, promoter binding, and promoter-subfragment binding (Escherichia coli RNAP): same mechanism as Myx
- MIC (Bacillus subtilis): ≤ 10 µg/mL
- MIC (B. megaterium): ≤ 10 µg/mL
- MIC (Micrococcus luteus): ≤ 10 µg/mL
- MIC [3]: ≤ 10 µg/mL
- MIC [4]: ≤ 10 µg/mL
- Ki (bacterial RNAP): 4 µM
- inhibition of eukaryotic RNAP II (eukaryotic RNAP II): does not inhibit
